Measured values: patent US12479821B2 (MBD CO., LTD., priority 2019, dated 2025)
Read-outs that look alike come from different tables or passages of the source.

Molecular target: T1, CYP4A (Homo sapiens, UniProt Q02928)
T1 construct: host or cells: bactosome, i.e. bacterial membrane preparation (own knowledge of the term)
T1 sequence (Q02928 5-519): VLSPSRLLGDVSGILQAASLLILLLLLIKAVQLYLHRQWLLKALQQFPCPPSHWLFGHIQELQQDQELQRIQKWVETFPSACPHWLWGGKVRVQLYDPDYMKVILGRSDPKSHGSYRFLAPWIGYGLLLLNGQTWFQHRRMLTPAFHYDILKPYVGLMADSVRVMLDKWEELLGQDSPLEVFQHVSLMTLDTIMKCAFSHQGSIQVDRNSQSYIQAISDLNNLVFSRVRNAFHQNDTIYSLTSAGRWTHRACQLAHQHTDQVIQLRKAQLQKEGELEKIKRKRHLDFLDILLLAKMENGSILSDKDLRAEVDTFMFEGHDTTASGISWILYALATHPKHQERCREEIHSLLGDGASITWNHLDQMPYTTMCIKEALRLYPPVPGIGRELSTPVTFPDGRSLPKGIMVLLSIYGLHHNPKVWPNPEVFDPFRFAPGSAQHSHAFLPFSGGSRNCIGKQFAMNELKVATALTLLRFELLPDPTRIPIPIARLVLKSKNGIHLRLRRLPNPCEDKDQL
Experiment: CYP4A enzyme assay (Luciferin-ME luminescence, CYP4A bactosome)
Format: biochemical
Conditions: compound concentration 5 μM
Description: A commercially available reagent was used for the reagent used in the experiment, and it was manufactured and used if necessary. The device used for activity measurement was EnVision of PerkinElmer or SpectraMax of MOLECULAR DEVICES.
First, CYP4A bactosome and synthetic compound (5 μM) were mixed in assay buffer (100 mM KPO4, 0.1% BSA, 1 mM DTT) in a 384-well plate (white opaque ploystyrene nontreated flat-bottom well), and then reacted at room temperature for 15 minutes. After adding 5 mM Luciferin-ME and NADPH Regeneration system (10× sol.A, 20× sol.B in assay buffer, Cat. Number: V865B, Promega), leave it at room temperature for 30 minutes to allow the CYP4A reaction to occur sufficiently, by adding the Luciferin Detection reagent, the CYP4A reaction was finished, luminescence reaction was induced, and the reaction was carried out at room temperature for 15 minutes. The degree of inhibition of CYP4A activity was measured by comparing the luminescence values from each well with a microplate reader.

[1] = 75% or more, read-out: % Inhibition 75% or more
[2] = 25%-50%, read-out: % Inhibition 25%-50%
[3] = '50%-75%', read-out: % Inhibition 50%-75%

SMILES	inhibition at 5 µM [1]	other results
Cc1ccc(S(=O)(=O)N2CCCC(C(=O)N3CCN(c4cc(C(F)(F)F)nc5ccccc45)CC3)C2)cc1 (centres unmarked) [Formula 65, (1-tosylpiperidin-3-yl) (4-(2-(trifluoromethyl)quinolin-4-yl)piperazin-1-yl) methanone]	–	inhibition at 5 µM [2]: 25 to 50%
O=C(C1CCCN(S(=O)(=O)c2ccc(F)cc2)C1)N1CCN(c2cc(C(F)(F)F)nc3ccccc23)CC1 (centres unmarked) [Formula 66, (1-(4-fluorophenylsulfonyl)piperidin-3-yl) (4-(2-(trifluoromethyl)quinolin-4-yl)piperazin-1-yl) methanone]	–	inhibition at 5 µM [2]: 25 to 50%
O=C(C1CCCN(S(=O)(=O)c2ccc(F)cc2)C1)N1CCN(c2ccnc3cc(Cl)ccc23)CC1 (centres unmarked) [Formula 3, (4-(7-chloroquinolin-4-yl)piperazin-1-yl) (1-((4-fluorophenyl)sulfonyl)piperidin-3-yl) methanone]	–	inhibition at 5 µM [3]: 50 to 75%
CS(=O)(=O)c1ccc(S(=O)(=O)N2CCCC(C(=O)N3CCN(c4ccnc5cc(Cl)ccc45)CC3)C2)cc1 (centres unmarked) [Formula 11, (4-(7-chloroquinolin-4-yl)piperazin-1-yl) (1-(4-(methylsulfonyl)phenylsulfonyl)piperidin-3-yl) methanone]	≥ 75%	–
Cc1cc(N2CCN(C(=O)C3CCCN(S(=O)(=O)c4ccc(N(C)C)cc4)C3)CC2)c2ccccc2n1 (centres unmarked) [Formula 31, (1-(4-(dimethylamino)phenylsulfonyl)piperidin-3-yl) (4-(2-methylquinolin-4-yl)piperazin-1-yl) methanone]	≥ 75%	–
Cc1cc(N2CCN(C(=O)C3CCCN(S(=O)(=O)c4ccc(Oc5ccccc5)cc4)C3)CC2)c2ccccc2n1 (centres unmarked) [Formula 34, (4-(2-methylquinolin-4-yl)piperazin-1-yl) (1-(4-phenoxyphenylsulfonyl)piperidin-3-yl) methanone]	–	inhibition at 5 µM [2]: 25 to 50%
COc1ccc2c(N3CCN(C(=O)C4CCCN(S(=O)(=O)c5ccc(C)cc5)C4)CC3)ccnc2c1 (centres unmarked) [Formula 88, (4-(7-methoxyquinolin-4-yl)piperazin-1-yl) (1-tosylpiperidin-3-yl) methanone]	–	inhibition at 5 µM [2]: 0%
CN(C)c1ccc(S(=O)(=O)N2CCC[C@H](C(=O)N3CCN(c4ccnc5cc(F)ccc45)CC3)C2)cc1	≥ 75%	–
O=C(C1CCCN(S(=O)(=O)c2ccc(Br)cc2)C1)N1CCN(c2ccnc3ccccc23)CC1 (centres unmarked) [Formula 85, (1-(4-bromophenylsulfonyl)piperidin-3-yl) (4-(quinolin-4-yl)piperazin-1-yl) methanone]	–	inhibition at 5 µM [3]: 50 to 75%

Further lines, with some results ahead:

inhibition at 5 µM [1]	SMILES	other results
≥ 75%	O=C(C1CCCN(S(=O)(=O)c2cccc(-c3cncnc3)c2)C1)N1CCN(c2ccnc3cc(F)ccc23)CC1 (centres unmarked) [Formula 112, (4-(7-fluoroquinolin-4-yl)piperazin-1-yl) (1-(3-(pyrimidin-5-yl)phenylsulfonyl)piperidin-3-yl) methanone]	–
≥ 75%	O=C(C1CCCN(S(=O)(=O)c2cccc(-c3cccnc3)c2)C1)N1CCN(c2ccnc3cc(F)ccc23)CC1 (centres unmarked) [Formula 110, (4-(7-fluoroquinolin-4-yl)piperazin-1-yl) (1-(3-(pyridin-3-yl)phenylsulfonyl)piperidin-3-yl) methanone]	–
≥ 75%	Cc1ncc(-c2ccc(S(=O)(=O)N3CCCC(C(=O)N4CCN(c5ccnc6ccccc56)CC4)C3)cc2)cn1 (centres unmarked) [Formula 115, (1-(4-(2-methylpyrimidin-5-yl)phenylsulfonyl)piperidin-3-yl) (4-(quinolin-4-yl)piperazin-1-yl) methanone]	–
≥ 75%	CN(C)c1ccc(S(=O)(=O)N2CCC[C@H](C(=O)N3CCN(c4ccnc5ccccc45)CC3)C2)cc1 [Formula 80, (S)-(1-(4-(dimethylamino)phenylsulfonyl)piperidin-3-yl) (4-(quinolin-4-yl)piperazin-1-yl)methanone]	–
≥ 75%	O=C(C1CCCN(S(=O)(=O)c2ccc([N+](=O)[O-])cc2)C1)N1CCN(c2ccnc3ccccc23)CC1 (centres unmarked) [Formula 81, (1-(4-nitrophenylsulfonyl)piperidin-3-yl) (4-(quinolin-4-yl)piperazin-1-yl) methanone]	–
